Results reported in PubChem BioAssay AID330 (DTP/NCI, 2004).
“And” between values parts separate entries of the source, which are not always exact repeats. Equal entries are not always repeated. Inconclusive results and toxic doses are left out.

Tested on: P388 leukemia ip, CD2F1 mice, survival T/C
Experiment: NCI In Vivo Anticancer Drug Screen. Data for tumor model P388 Leukemia (intraperitoneal) in CD2F1 (CDF1) mice
Settings: endpoint: median survival time, higher = longer survival
How it was run: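 Mice carrying the transplanted tumor received test compound or vehicle. Survival was recorded in each group, and the value is the treated-group measurement divided by that of the vehicle-treated control group.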

[1] = dose: 60.0 mg/kg/injection, schedule: Q01DX005 (ip), vehicle: Klucel (hydroxypropylcellulose) (HPC)
[2] = dose: 120.0 mg/kg/injection, schedule: Q01DX005 (ip), vehicle: Klucel (hydroxypropylcellulose) (HPC)
[3] = dose: 240.0 mg/kg/injection, schedule: Q01DX005 (ip), vehicle: Klucel (hydroxypropylcellulose) (HPC)
[4] = dose: 50.0 mg/kg/injection, schedule: Q01DX009 (ip), vehicle: saline with Tween-80
[5] = dose: 100.0 mg/kg/injection, schedule: Q01DX009 (ip), vehicle: saline with Tween-80
[6] = dose: 200.0 mg/kg/injection, schedule: Q01DX009 (ip), vehicle: saline with Tween-80
[7] = dose: 100.0 mg/kg/injection, schedule: Q04DX002 (ip), vehicle: saline with Tween-80
[8] = dose: 50.0 mg/kg/injection, schedule: Q01DX009 (ip), vehicle: saline
[9] = dose: 100.0 mg/kg/injection, schedule: Q01DX009 (ip), vehicle: saline
[10] = dose: 200.0 mg/kg/injection, schedule: Q01DX009 (ip), vehicle: saline
[11] = dose: 60.0 mg/kg/injection, schedule: Q01DX005 (ip), vehicle: saline with Tween-80
[12] = dose: 120.0 mg/kg/injection, schedule: Q01DX005 (ip), vehicle: saline with Tween-80
[13] = dose: 60.0 mg/kg/injection, schedule: Q01DX005 (ip), vehicle: saline
[14] = dose: 120.0 mg/kg/injection, schedule: Q01DX005 (ip), vehicle: saline
[15] = dose: 240.0 mg/kg/injection, schedule: Q01DX005 (ip), vehicle: saline
[16] = dose: 240.0 mg/kg/injection, schedule: Q01DX005 (ip), vehicle: saline with Tween-80
[17] = dose: 50.0 mg/kg/injection, schedule: Q01DX005 (ip), vehicle: saline with Tween-80
[18] = dose: 100.0 mg/kg/injection, schedule: Q01DX005 (ip), vehicle: saline with Tween-80
[19] = dose: 200.0 mg/kg/injection, schedule: Q01DX005 (ip), vehicle: saline with Tween-80
[20] = dose: 200.0 mg/kg/injection, schedule: Q04DX002 (ip), vehicle: saline with Tween-80
[21] = dose: 400.0 mg/kg/injection, schedule: Q04DX002 (ip), vehicle: saline with Tween-80

Compound: CCCC(CC(=O)O)c1c2c(c(O)c3c1OC(C)C(C)C3=O)C=CC(C)(C)O2 (configuration not stated)
- T/C [1]: 97 % of control
- T/C [2]: 103 % of control
- T/C [3]: 93 % of control

Compound: CCCCN1C(=O)[C@@H]2[C@H](c3ccccc3O)C(c3ccccc3O)[C@@H]2C1=O (some centres not stated)
- T/C [1]: 100 % of control
- T/C [2]: 92 % of control
- T/C [3]: 100 % of control

Compound: O=C/C=C/c1cccc([N+](=O)[O-])c1
- T/C [4]: 113 % of control
- T/C [5]: 113 % of control
- T/C [6]: 104 % of control

Compound: CCCSc1ccc([N+](=O)[O-])cc1
- T/C (dose: 25.0 mg/kg/injection, schedule: Q04DX002 (ip), vehicle: saline with Tween-80): 103 % of control
- T/C (dose: 50.0 mg/kg/injection, schedule: Q04DX002 (ip), vehicle: saline with Tween-80): 104 % of control
- T/C [7]: 106 % of control

Compound: CCCCCCCCC[N+]1([O-])CCOCC1
- T/C [8]: 100 % of control
- T/C [9]: 97 % of control
- T/C [10]: 88 % of control

Compound: N=c1c2ncn(C3OC(COP(=O)(O)O)C(O)C3O)c2ncn1O (configuration not stated)
- T/C [8]: 97 % of control
- T/C [9]: 97 % of control
- T/C [10]: 95 % of control
- T/C (dose: 400.0 mg/kg/injection, schedule: Q01DX009 (ip), vehicle: saline): 97 % of control

Compound: O=C(OC1CCc2ccccc2C1)c1ccc(N=Nc2ccccc2)cc1 (configuration not stated)
- T/C (dose: 15.0 mg/kg/injection, schedule: Q01DX005 (ip), vehicle: saline with Tween-80): 100 % of control
- T/C (dose: 30.0 mg/kg/injection, schedule: Q01DX005 (ip), vehicle: saline with Tween-80): 97 % of control
- T/C [11]: 91 % of control
- T/C [12]: 86 % of control

Compound: O=C1Nc2ccccc2C(=O)C1(Cc1ccccc1)C(=O)c1ccccc1 (configuration not stated)
- T/C [1]: 99 % of control
- T/C [2]: 105 % of control
- T/C [3]: 97 % of control

Compound: CN=S(=O)(c1ccccc1)C1(C)CC(C)=C(C)CS1=O (configuration not stated)
- T/C [13]: 94 % of control
- T/C [14]: 97 % of control
- T/C [15]: 103 % of control

Compound: O=S(=O)(F)c1nc(Cl)c2[nH]cnc2n1
- T/C (dose: 12.5 mg/kg/injection, schedule: Q01DX005 (ip), vehicle: Klucel (hydroxypropylcellulose) (HPC)): 106 % of control
- T/C (dose: 25.0 mg/kg/injection, schedule: Q01DX005 (ip), vehicle: Klucel (hydroxypropylcellulose) (HPC)): 114 % of control
- T/C (dose: 50.0 mg/kg/injection, schedule: Q01DX005 (ip), vehicle: Klucel (hydroxypropylcellulose) (HPC)): 110 % of control and 114 % of control

Compound: CCCCCCCCCCCCCCCC[N+]1(CC)CCSCC1
- T/C [8]: 100 % of control
- T/C [9]: 96 % of control
- T/C [10]: 100 % of control

Compound: COc1cc(C(=O)n2ncc(C(C)=O)c2C)cc(OC)c1OC
- T/C [4]: 103 % of control
- T/C [5]: 106 % of control
- T/C [6]: 116 % of control

Compound: C=CC(O)CC#N (configuration not stated)
- T/C (dose: 18.75 mg/kg/injection, schedule: Q01DX009 (ip), vehicle: saline with Tween-80): 102 % of control
- T/C (dose: 37.5 mg/kg/injection, schedule: Q01DX009 (ip), vehicle: saline with Tween-80): 102 % of control
- T/C (dose: 75.0 mg/kg/injection, schedule: Q01DX009 (ip), vehicle: saline with Tween-80): 108 % of control

Compound: O=C(CN1CCN(CCO)CC1)N1c2ccccc2Sc2ccc(C(F)(F)F)cc21
- T/C (dose: 100.0 mg/kg/injection, schedule: Q04DX002 (ip), vehicle: saline): 101 % of control
- T/C (dose: 200.0 mg/kg/injection, schedule: Q04DX002 (ip), vehicle: saline): 90 % of control

Compound: O=C1C2CCCN2C(=O)N1c1ccc([N+](=O)[O-])cc1 (configuration not stated)
- T/C (dose: 100.0 mg/kg/injection, schedule: Q01DX001 (ip), vehicle: Klucel (hydroxypropylcellulose) (HPC)): 97 % of control
- T/C (dose: 200.0 mg/kg/injection, schedule: Q01DX001 (ip), vehicle: Klucel (hydroxypropylcellulose) (HPC)): 97 % of control
- T/C (dose: 400.0 mg/kg/injection, schedule: Q01DX001 (ip), vehicle: Klucel (hydroxypropylcellulose) (HPC)): 99 % of control

Compound: CCn1c2ccccc2n2c(=O)cc(-c3ccccc3)c(C#N)c12
- T/C [11]: 98 % of control
- T/C [12]: 106 % of control
- T/C [16]: 97 % of control

Compound: C[Si](C)(CNCCN)O[Si](C)(C)CNCCN
- T/C [13]: 99 % of control
- T/C [14]: 90 % of control
- T/C [15]: 101 % of control

Compound: CCOC(=O)/C=C(\C)Nc1cccc2c(N/C(C)=C/C(=O)OCC)cccc12
- T/C [17]: 105 % of control
- T/C [18]: 100 % of control
- T/C [19]: 98 % of control

Compound: COc1ccc(NC(=O)Oc2ccc(C#N)cc2)cc1
- T/C (dose: 7.5 mg/kg/injection, schedule: Q01DX005 (ip), vehicle: Klucel (hydroxypropylcellulose) (HPC)): 108 % of control and 98 % of control
- T/C (dose: 15.0 mg/kg/injection, schedule: Q01DX005 (ip), vehicle: Klucel (hydroxypropylcellulose) (HPC)): 112 % of control and 98 % of control
- T/C (dose: 30.0 mg/kg/injection, schedule: Q01DX005 (ip), vehicle: Klucel (hydroxypropylcellulose) (HPC)): 105 % of control and 108 % of control
- T/C [1]: 116 % of control and 123 % of control
- T/C [2]: 117 % of control

Compound: Cc1nnc2sc3c(Cl)c4nn5c(C)nnc5sc4c(Cl)c3nn12
- T/C (dose: 0.78 mg/kg/injection, schedule: Q01DX009 (ip), vehicle: saline with Tween-80): 94 % of control
- T/C (dose: 1.56 mg/kg/injection, schedule: Q01DX009 (ip), vehicle: saline with Tween-80): 97 % of control
- T/C (dose: 3.13 mg/kg/injection, schedule: Q01DX009 (ip), vehicle: saline with Tween-80): 92 % of control

Compound: O=C1NCCN=C1Cc1ccccc1
- T/C [7]: 93 % of control
- T/C [20]: 100 % of control
- T/C [21]: 95 % of control

Compound: CCCCNC(=S)NC(c1ccc(OC)cc1)C(CC)c1ccc(OC)cc1 (configuration not stated)
- T/C [7]: 90 % of control
- T/C [20]: 88 % of control
- T/C [21]: 90 % of control

Compound: CC1=C(C#N)C2(N)OC1(C)C1C(=O)C=CC(=O)C12 (configuration not stated)
- T/C [17]: 110 % of control
- T/C [18]: 107 % of control
- T/C [19]: 108 % of control

Compound: CC[N+](C)(CC)CCOc1ccc(OCC[N+](C)(CC)CC)c2c1C(=O)c1ccccc1C2=O
- T/C (dose: 0.78 mg/kg/injection, schedule: Q01DX005 (ip), vehicle: saline): 98 % of control
- T/C (dose: 1.56 mg/kg/injection, schedule: Q01DX005 (ip), vehicle: saline): 109 % of control
- T/C (dose: 3.12 mg/kg/injection, schedule: Q01DX005 (ip), vehicle: saline): 100 % of control

Compound: O=C(O)/C=N/NS(=O)(=O)/C=C/c1ccccc1
- T/C (dose: 25.0 mg/kg/injection, schedule: Q01DX009 (ip), vehicle: distilled water + Tween-80): 166 % of control
- T/C (dose: 50.0 mg/kg/injection, schedule: Q01DX009 (ip), vehicle: distilled water + Tween-80): 172 % of control
- T/C (dose: 100.0 mg/kg/injection, schedule: Q01DX009 (ip), vehicle: distilled water + Tween-80): 112 % of control

Compound: NC(=O)CCCNC(=O)CCC[c-]1[c-][c-][c-][c-]1.[Fe].[c-]1[c-][c-][cH-][c-]1
- T/C (dose: 3.13 mg/kg/injection, schedule: Q01DX009 (ip), vehicle: other): 102 % of control
- T/C (dose: 6.25 mg/kg/injection, schedule: Q01DX009 (ip), vehicle: other): 102 % of control
- T/C (dose: 12.5 mg/kg/injection, schedule: Q01DX009 (ip), vehicle: other): 99 % of control and 96 % of control
- T/C (dose: 25.0 mg/kg/injection, schedule: Q01DX009 (ip), vehicle: other): 123 % of control
- T/C (dose: 50.0 mg/kg/injection, schedule: Q01DX009 (ip), vehicle: other): 111 % of control and 118 % of control

Compound: CCOC(=O)C1n2c(=O)n(-c3ccccc3)c(=O)n21
- T/C (dose: 50.0 mg/kg/injection, schedule: Q01DX005 (ip), vehicle: Klucel + Tween-80): 96 % of control
- T/C (dose: 100.0 mg/kg/injection, schedule: Q01DX005 (ip), vehicle: Klucel + Tween-80): 87 % of control
- T/C (dose: 200.0 mg/kg/injection, schedule: Q01DX005 (ip), vehicle: Klucel + Tween-80): 93 % of control

Compound: CC1=NCCN=C(C)C1N=Nc1ccc(S(=O)(=O)N=C(N)N)cc1
- T/C (dose: 100.0 mg/kg/injection, schedule: Q04DX003 (ip), vehicle: saline with Tween-80): 90 % of control
- T/C (dose: 200.0 mg/kg/injection, schedule: Q04DX003 (ip), vehicle: saline with Tween-80): 92 % of control
- T/C (dose: 400.0 mg/kg/injection, schedule: Q04DX003 (ip), vehicle: saline with Tween-80): 90 % of control

Compound: COc1nc2nc(SC(CC(=O)O)C(=O)c3ccc(Cl)cc3)[nH]c2c2ccccc12 (configuration not stated)
- T/C [11]: 97 % of control
- T/C [12]: 95 % of control
- T/C [16]: 92 % of control
